Measured values taken from patent US20250163056A1, “NONMUSCLE MYOSIN II INHIBITORS” (The University of Florida Research Foundation, Inc., priority 2018, published 2025).

Key:
[1] = Photostability, percentage remaining undegraded under illumination or in the dark; conditions: for Photostability 4 hours: percentage remaining undegraded after 4 hours illumination; for Photostability 24 hours: percentage remaining undegraded after 24 hours illumination; for Photostability Dark (24 h): percentage remaining undegraded in the dark
Bovine cardiac myosin = Bovine cardiac myosin (Bos taurus (Bovine), UniProt Q9BE39); assay: Cardiac muscle myosin II actin-activated ATPase assay (NADH-coupled); assay type: biochemical; design: key to Ratio CMMII:NMII Ki/EC50: NMII-sel: no Ki value for cardiac myosin II could be determined; the compounds had no detectable inhibitory properties versus the cardiac myosin II; conditions: for Ki: 300 nM cardiac myosin, 10 μM actin, 25° C., read-out: CMMII KI; for Ratio CMMII:NMII Ki/EC50: cardiac myosin II Ki over nonmuscle myosin II EC50
Procedure, shortened: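 Inhibitory constants came from a quadratic one-to-one binding fit of 16-point dose-responses (highest final 50 uM, triplicate). Rates were NADH-calibrated fluorescence slopes over 30 min at 25° C, with 300 nM bovine cardiac myosin, 10 μM actin and 1 mM ATP coupled through PK/LDH in pH 7.0 MOPS buffer.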

Rabbit skeletal myosin = assay: Skeletal muscle myosin II actin-activated ATPase assay; assay type: biochemical; conditions: 20 nM skeletal muscle myosin II; read-out: SKMMII KI
Procedure, shortened: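 Inhibitory constants come from a quadratic one-site fit of 16-point, triplicate dose-response data, highest compound concentration 50 uM. Rates are slopes of NADH fluorescence decline over 30 min, coupling ATP turnover of 20 nM rabbit skeletal myosin II with 10 μM actin and 1 mM ATP via PK/LDH, pH 7.0, 25 °C.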

Chain of Bovine cardiac myosin (Q9BE39 whole entry): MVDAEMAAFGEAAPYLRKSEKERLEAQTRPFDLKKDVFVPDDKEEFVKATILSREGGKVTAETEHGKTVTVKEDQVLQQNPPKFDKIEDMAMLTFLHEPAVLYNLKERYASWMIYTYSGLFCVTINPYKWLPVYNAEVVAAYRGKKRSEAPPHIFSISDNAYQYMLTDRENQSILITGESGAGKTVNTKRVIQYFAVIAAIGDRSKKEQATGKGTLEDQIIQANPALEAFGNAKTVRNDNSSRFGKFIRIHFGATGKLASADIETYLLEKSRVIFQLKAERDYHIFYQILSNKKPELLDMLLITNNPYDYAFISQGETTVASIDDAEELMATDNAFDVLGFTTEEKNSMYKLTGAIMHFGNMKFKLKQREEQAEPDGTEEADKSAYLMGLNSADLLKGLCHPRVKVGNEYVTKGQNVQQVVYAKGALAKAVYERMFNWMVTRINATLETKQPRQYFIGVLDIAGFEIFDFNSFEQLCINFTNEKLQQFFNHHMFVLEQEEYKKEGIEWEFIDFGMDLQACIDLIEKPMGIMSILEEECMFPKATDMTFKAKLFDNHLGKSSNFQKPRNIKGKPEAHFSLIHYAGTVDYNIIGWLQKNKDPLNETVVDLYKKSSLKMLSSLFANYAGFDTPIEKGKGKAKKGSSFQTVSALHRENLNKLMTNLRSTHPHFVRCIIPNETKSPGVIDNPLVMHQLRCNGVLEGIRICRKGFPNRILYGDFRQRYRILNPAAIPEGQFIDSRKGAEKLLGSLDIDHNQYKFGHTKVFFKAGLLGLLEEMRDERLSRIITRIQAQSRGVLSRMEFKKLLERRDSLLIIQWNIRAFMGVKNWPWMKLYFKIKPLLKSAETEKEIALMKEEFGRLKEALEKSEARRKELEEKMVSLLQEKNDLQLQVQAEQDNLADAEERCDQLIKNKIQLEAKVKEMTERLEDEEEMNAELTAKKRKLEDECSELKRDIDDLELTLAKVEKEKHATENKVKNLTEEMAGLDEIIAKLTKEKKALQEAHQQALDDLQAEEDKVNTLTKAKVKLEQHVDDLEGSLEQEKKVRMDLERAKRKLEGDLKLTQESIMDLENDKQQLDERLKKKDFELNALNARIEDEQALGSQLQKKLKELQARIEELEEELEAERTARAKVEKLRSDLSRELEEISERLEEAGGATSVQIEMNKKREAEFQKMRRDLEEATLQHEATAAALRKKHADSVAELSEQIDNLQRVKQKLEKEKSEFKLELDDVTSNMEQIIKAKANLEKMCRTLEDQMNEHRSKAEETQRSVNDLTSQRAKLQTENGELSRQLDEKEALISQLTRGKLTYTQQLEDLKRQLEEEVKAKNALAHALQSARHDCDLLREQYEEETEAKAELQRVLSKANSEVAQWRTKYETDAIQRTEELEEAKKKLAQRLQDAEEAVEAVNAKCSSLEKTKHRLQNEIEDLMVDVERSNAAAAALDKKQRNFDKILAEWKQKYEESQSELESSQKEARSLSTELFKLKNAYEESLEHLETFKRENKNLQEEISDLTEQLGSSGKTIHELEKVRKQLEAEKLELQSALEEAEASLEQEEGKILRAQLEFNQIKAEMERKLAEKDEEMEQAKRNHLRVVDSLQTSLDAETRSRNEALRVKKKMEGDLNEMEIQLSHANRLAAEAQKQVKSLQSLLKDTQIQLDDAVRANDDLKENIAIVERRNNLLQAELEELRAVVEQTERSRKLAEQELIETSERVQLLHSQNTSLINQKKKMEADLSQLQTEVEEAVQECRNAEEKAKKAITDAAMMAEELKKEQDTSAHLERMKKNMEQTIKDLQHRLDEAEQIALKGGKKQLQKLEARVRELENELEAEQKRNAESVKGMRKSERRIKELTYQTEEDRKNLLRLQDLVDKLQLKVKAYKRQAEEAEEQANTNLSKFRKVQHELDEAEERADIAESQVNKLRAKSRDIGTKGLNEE
Chain of Bovine cardiac myosin (P85100 whole entry partner): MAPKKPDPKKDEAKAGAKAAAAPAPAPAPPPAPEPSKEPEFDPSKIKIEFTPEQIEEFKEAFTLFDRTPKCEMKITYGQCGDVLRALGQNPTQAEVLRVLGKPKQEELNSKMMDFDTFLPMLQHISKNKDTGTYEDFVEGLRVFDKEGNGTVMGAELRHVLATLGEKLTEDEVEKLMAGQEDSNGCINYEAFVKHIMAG
Chain of Bovine cardiac myosin (Q3SZE5 whole entry partner): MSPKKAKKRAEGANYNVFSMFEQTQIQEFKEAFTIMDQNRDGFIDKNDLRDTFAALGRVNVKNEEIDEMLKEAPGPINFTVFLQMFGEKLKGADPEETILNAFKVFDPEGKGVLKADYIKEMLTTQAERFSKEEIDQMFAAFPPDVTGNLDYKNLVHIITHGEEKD

Row | Structure (SMILES) | Photostability 4 hours [1] | Photostability 24 hours [1] | Photostability Dark (24 h) [1] | Ki (Bovine cardiac myosin) | Ratio CMMII:NMII Ki/EC50 (Bovine cardiac myosin) | Ki (Rabbit skeletal myosin)
1 | Cc1cc2c(s1)N=C1N(c3ccc(C#N)c(Cl)c3)CC[C@@]1(O)C2=O [BPN-0027257] | 97.0% | 78.0% | 97.4% | 40 µM | 6.8 | 4.2 µM
2 | Cc1ccc2c(c1)C(=O)[C@]1(O)CCN(c3ccc4nc(C)ccc4c3)C1=N2 [BPN-0027289] | 91.9% | 26.3% | 97.0% | 50 µM | 29.4 | 1 µM
3 | Cc1ccc2c(c1)C(=O)[C@]1(O)CCN(c3ccc4nccnc4c3)C1=N2 [BPN-0027330] | 92.7% | 64.6% | >99% | 80 µM | 8.0 | 4.2 µM
4 | Cc1cc(N2CC[C@@]3(O)C(=O)c4cc(C)c(C(F)(F)F)cc4N=C23)on1 [BPN-0027346] | 97.7% | 98.7% | 98.1% | 33 µM | 6.9 | 2 µM
5 | Cc1ccc2c(c1)C(=O)[C@]1(O)CCN(c3ccc4c(C)noc4c3)C1=N2 [BPN-0027374] | 96.9% | 86.4% | >99% |  | NMII-sel | 0.82 µM
6 | Cc1sc2c(c1C)C(=O)[C@]1(O)CCN(c3ccc4ncccc4c3)C1=N2 [BPN-0027376] | 90.4% | 2.8% | 97.0% | 46 µM | 7.8 | 6.7 µM
7 | Cc1ccc2c(c1)C(=O)[C@]1(O)CCN(c3ccc4nc(C#N)ccc4c3)C1=N2 [BPN-0027393] | 95.2% | 83.9% | 97.5% | 30 µM | 5.8 | 3.5 µM
8 | Cc1ccc2c(c1)C(=O)[C@]1(O)CCN(c3ccc4nsnc4c3)C1=N2 [BPN-0027394] | 92.2% | 57.2% | 98.7% | 14 µM | 3.4 | 1.1 µM
9 | Cc1ccc2c(c1)C(=O)[C@]1(O)CCN(c3ccn4nccc4c3)C1=N2 [BPN-0027396] | 85.5% | 23.5% | >99% | 9.5 µM | 5.3 | 1.1 µM
10 | Cc1ccc2c(c1)C(=O)[C@]1(O)CCN(c3ccc4cncn4c3)C1=N2 [BPN-0027406] | 75.7% | 1.6% | >99% | 200 µM | 3.8 | 7.5 µM
11 | Cc1ccc2c(c1)C(=O)[C@]1(O)CCN(c3cnc4sccc4c3)C1=N2 [BPN-0027410] | 91.5% | 41.8% | >99% | 25 µM | 7.4 | 1.6 µM
12 | Cc1ccc2c(c1)C(=O)[C@]1(O)CCN(c3ccc4sc(C)nc4c3)C1=N2 [BPN-0027411] | 81.8% | 6.4% | 98.8% | 51 µM | 8.1 | 1.1 µM
13 | Cc1ccc2c(c1)C(=O)[C@]1(O)CCN(c3ccc4c(c3)OCCN4)C1=N2 [BPN-0027412] | 90.8% | 67.7% | 95.5% | 21 µM | 3.6 | 2.7 µM
14 | Cc1ccc2c(c1)C(=O)[C@]1(O)CCN(c3ccn4ncnc4c3)C1=N2 [BPN-0027441] | 97.2% | 71.4% | 91.8% | 230 µM | 4.6 | 12 µM
15 | Cc1ccc2c(c1)C(=O)[C@]1(O)CCN(c3cc4ncccc4s3)C1=N2 [BPN-0027468] | 83.3% | 77.5% | 98.3% |  | NMII-sel | 1.2 µM
16 | Cc1ccc2c(c1)C(=O)[C@]1(O)CCN(c3cc4cccnc4s3)C1=N2 [BPN-0027469] | 58.8% | 44.3% | >99% |  | NMII-sel | 0.68 µM

Row | Structure (SMILES) | Photostability 4 hours [1] | Photostability 24 hours [1] | Photostability Dark (24 h) [1] | Ki (Bovine cardiac myosin) | Ratio CMMII:NMII Ki/EC50 (Bovine cardiac myosin) | Ki (Rabbit skeletal myosin)
17 | Cc1cc2c(cc1C)C(=O)[C@]1(O)CCN(c3ccn4nccc4c3)C1=N2 [BPN-0027488] | 49.4% | 20.0% | 96.4% |  | NMII-sel | 0.9 µM
18 | Cc1cc2c(cc1C)C(=O)[C@]1(O)CCN(c3cnc4sccc4c3)C1=N2 [BPN-0027489] | 76.1% | 8.5% | >99% | 26 µM | 33.3 | 0.94 µM
19 | Cc1ccc2cc(N3CC[C@@]4(O)C(=O)c5cc(C)c(C)cc5N=C34)ccc2n1 [BPN-0027490] | 80.8% | 6.8% | 98.5% |  | NMII-sel | 0.41 µM
20 | Cc1nc2cc(N3CC[C@@]4(O)C(=O)c5cc(C)c(C)cc5N=C34)ccc2s1 [BPN-0027491] | 54.0% | 6.7% | 97.1% | 24 µM | 10.4 | 0.68 µM
21 | Cc1cc2c(cc1C)C(=O)[C@]1(O)CCN(c3ccc4nc(C#N)ccc4c3)C1=N2 [BPN-0027492] | 95.1% | 66.9% | >99% |  | NMII-sel | 2.6 µM
22 | Cc1ccc2c(c1)C(=O)[C@]1(O)CCN(c3ccc4nc(N)ccc4c3)C1=N2 [BPN-0027494] | 63.5% | <1.0% | 88.4% |  | NMII-sel | 4.7 µM
23 | Cc1cc2c(cc1C)C(=O)[C@]1(O)CCN(c3ccc4nnsc4c3)C1=N2 [BPN-0028550] | 92.7% | 77.6% | 89.4% | 70 µM | 7.5 | 9.4 µM
24 | Cc1cc2c(cc1C)C(=O)[C@]1(O)CCN(c3ccc4c(c3)OCCN4)C1=N2 [BPN-0028552] | 87.7% | 62.2% | 91.8% | 26 µM | 21.7 | 2.5 µM
25 | Cc1ccc2c(c1)C(=O)[C@]1(O)CCN(c3ccc4nc(CO)ccc4c3)C1=N2 [BPN-0028554] | 87.6% | 35.9% | 97.6% | 120 µM | 12.4 | 9 µM
26 | Cc1cc2c(cc1C)C(=O)[C@]1(O)CCN(c3ccc4oc(CO)cc4c3)C1=N2 [BPN-0028555] | 4.7% | <1% | 93.6% | 4.6 µM | 6.1 | 1.5 µM
27 | Cc1cc(N2CC[C@@]3(O)C(=O)c4cc(C)c(C)cc4N=C23)ccn1 [BPN-0028616] | 93.2% | 71.0% | 89.4% | 200 µM | 13.3 | 11 µM
28 | CCC1=CC2N=C3N(c4ccc5ncccc5c4)CC[C@@]3(O)C(=O)C2S1 (stereo partly shown) [BPN-0028625] | 84.4% | 84.6% | 81.8% | 300 µM | 56.6 | 8.9 µM
29 | Cc1ccc2c(c1)C(=O)[C@]1(O)CCN(c3cnc(C#N)c(Cl)c3)C1=N2 [BPN-0028646] | >99% | 97.1% | 98.2% |  | NMII-sel | 1.3 µM
30 | COc1ccc(N2CC[C@@]3(O)C(=O)c4cc(C)c(C)cc4N=C23)cn1 [BPN-0028648] | 52.5% | <1% | 98.4% | 4.4 µM | 3.4 | 0.26 µM
31 | Cc1cc2c(cc1C)C(=O)[C@]1(O)CCN(c3cnc(CO)c(Cl)c3)C1=N2 [BPN-0028649] | 96.7% | 73.1% | 98.4% | 30 µM | 7.1 | 2.7 µM
32 | CNc1cc(N2CC[C@@]3(O)C(=O)c4cc(C)c(C)cc4N=C23)ccn1 [BPN-0028650] | 88.7% | 62.6% | 93.4% | 40 µM | 4.4 | 12 µM
